Experimental data: patent US4052409A, “Disubstituted triphenylmethylimidazoles” (Bayer Aktiengesellschaft, priority 1972, dated 1977)
Values after ≈ are worked out from the molar mass of the structure shown. Where two headings read alike, the source gives them in different places.

Tests used:
Microsporon canis = experiment: Antimycotic activity in vitro, series dilution test; format: cell-based; conditions: 28° C, 24 to 96 hours; serum not stated; read-out: Minimum Inhibitory Concentration
Experimental: (§1) Determination of the antimycotic spectrum of activity in vitro by the series dilution test.
(§2) The nutrient media used were Sabouraud's milieu d'epreuve for dermatophytes and molds and meat broth-glucose bouillon for blastomycetes and biphase fungi.
(§3) The incubation temperature was 28° C and the incubation time was 24 to 96 hours.

Penicillium commune = experiment: as above; format: cell-based; conditions: 28° C, 24 to 96 hours, serum not stated, read-out: Minimum Inhibitory Concentration
Experimental: as §1, §2, §3

Aspergillus niger = experiment: as above; format: cell-based; conditions: 28° C, 24 to 96 hours, read-out: Minimum Inhibitory Concentration
Experimental: as §1, §2, §3

[1] = system: Trichophyton mentagrophytes; experiment: Topical application in experimental trichophytosis of guinea pigs; format: in vivo; parameters: key: ++: slight action = reduction of symptons of the infection; +++: action = rapid healing of the infection; ++++: good action = complete suppression of symptoms of the infection; conditions: 1% strength solution, topically for 11 to 14 days
Source text: a. Topical application in experimental trichophytosis of guinea pigs (excitant: Trichophyton mentagrophytes)
A 1% strength solution of the active compound in a dimethylsulphoxide/glycerine/water mixture (1:3:6) or in polyethylene glycol 400 was applied topically for 11 to 14 days after the trichophytosis had been caused experimentally.

[2] = system: Trichophyton mentagrophytes; experiment: Antimycotic activity in vitro, series dilution test; format: cell-based; conditions: 28° C, 24 to 96 hours, read-out: Minimum Inhibitory Concentration
Experimental: as §1, §2, §3

Candida albicans = experiment: as above; format: cell-based; conditions: 28° C, 24 to 96 hours, read-out: Minimum Inhibitory Concentration
Experimental: as §1, §2, §3

MIC (Microsporon canis) [µg/mL]	MIC (Penicillium commune) [µg/mL]	MIC (Aspergillus niger; n.s. = no added serum) [µg/mL]	MIC (Aspergillus niger; w.s. = with 30% serum added) [µg/mL]	MIC ([2]; n.s. = no added serum) [µg/mL]	MIC ([2]; w.s. = with 30% serum added) [µg/mL]	MIC (Candida albicans; n.s. = no added serum) [µg/mL]	MIC (Candida albicans; w.s. = with 30% serum added) [µg/mL]	SMILES	Action in trichophytosis of guinea pigs [1]
4 (≈ 11.1 µM)	4 (≈ 11.1 µM)	1 (≈ 2.79 µM)	10 (≈ 27.9 µM)	–	–	–	–	Cc1cc(Cl)ccc1C(c1ccccc1)(c1ccccc1)n1ccnc1 [Example 4 (from Table 1), 1-(2-Methyl-4-chlorophenyl-diphenyl)-methyl-imidazole]	–
4 (≈ 11.8 µM)	4 (≈ 11.8 µM)	1 (≈ 2.95 µM)	40 (≈ 118 µM)	–	–	–	–	Cc1ccc(C)c(C(c2ccccc2)(c2ccccc2)n2ccnc2)c1 [Example 3 (from Table 1), 1-(2,5-Dimethylphenyl-diphenyl)-methyl-imidazole]	–
4 (≈ 11.8 µM)	100 (≈ 295 µM)	1 (≈ 2.95 µM)	4 (≈ 11.8 µM)	< 1	10 (≈ 29.5 µM)	1 (≈ 2.95 µM)	–	Cc1ccc(C(c2ccccc2)(c2ccccc2)n2ccnc2)c(C)c1 [Example 2]	++++

The remaining lines, values behind:

SMILES	MIC (Microsporon canis) [µg/mL]	MIC (Penicillium commune) [µg/mL]	MIC (Aspergillus niger; n.s. = no added serum) [µg/mL]	MIC (Aspergillus niger; w.s. = with 30% serum added) [µg/mL]	MIC ([2]; n.s. = no added serum) [µg/mL]	MIC ([2]; w.s. = with 30% serum added) [µg/mL]	MIC (Candida albicans; n.s. = no added serum) [µg/mL]	MIC (Candida albicans; w.s. = with 30% serum added) [µg/mL]	Action in trichophytosis of guinea pigs [1]
Clc1cccc(Cl)c1C(c1ccccc1)(c1ccccc1)n1ccnc1 [Example 7 (from Table 1), 1-(2,6-Dichlorophenyl-diphenyl)-methyl-imidazole]	< 1	4 (≈ 10.5 µM)	< 1	4 (≈ 10.5 µM)	–	–	–	–	–
Clc1cccc(C(c2ccccc2)(c2ccccc2)n2ccnc2)c1Cl [Example 6]	< 1	4 (≈ 10.5 µM)	< 1	10 (≈ 26.4 µM)	< 1	4 (≈ 10.5 µM)	1 (≈ 2.64 µM)	–	++
Clc1ccccc1C(c1ccccc1)(c1ccccc1Cl)n1ccnc1 [Example 9 (from Table 1), 1-(2-Chlorophenyl-2'-chlorophenyl-phenyl) -methyl-imidazole]	< 1	1 (≈ 2.64 µM)	< 1	–	–	–	–	–	–
Cc1ccccc1C(c1ccccc1)(c1ccccc1C)n1ccnc1 [Example 8 (from Table 1), 1-(2-Methylphenyl-2'-methylphenyl-phenyl)-methyl-imidazole]	4 (≈ 11.8 µM)	10 (≈ 29.5 µM)	< 1	10 (≈ 29.5 µM)	–	–	–	10 (≈ 29.5 µM)	–
Cc1cccc(C(c2ccccc2)(c2ccccc2)n2ccnc2)c1C [Example 1 (from Table 1), 1-(2,3-dimethylphenyl-diphenyl)-methyl-imidazole]	4 (≈ 11.8 µM)	< 1	–	–	–	–	–	–	–
